Experiments:
Solubility observations = type: physicochemical
[1] = 1H NMR stability of Telox-2 in D2O (0.01% dDMSO); type: physicochemical
Excerpt: To investigate the stability of Telox-2 compared to Telox ^1H NMR spectra of Telox-2 were collected over a period of 1 week under biologically-relevant conditions (0.01% dDMSO in D2O).

Jurkat cells = experiment: Metabolic toxicity assay (WST-1) in Jurkat cells; type: cell-based; conditions: Jurkat cells, 24 hour incubation, WST-1
Experimental: FIGS. 7A, B and C show a) and b) the cell proliferation rate of HCT116 cells as a function of time in the presence of various concentrations of the exemplary compound, Telox-2 (confluency analysis); and c) the metabolic toxicity of the exemplary compound, Telox-2, in Jurkat cells as measured by reduction of WST-1. Cells were incubated with Telox-2 for 24 hours prior to a 30 minute exposure to WST-1.
A 96 well clear fluorometer plate was loaded with 200 μL of Jurkat cells at a culture density of 1×10^6 cells per mL. To each well was added an appropriate amount of a stock solution of Telox/Telox2 in sterile DMSO to reach a desired concentration of Telox/Telox2 (1-1000 micromole). The concentration of DMSO was 1% in all wells. Cells were allowed to incubate for 24 h at 37° C. under normal atmosphere, after which 20 μL of a commercially available solution of WST-1 in PBS (Roche Diagnostics, product #05015944001) was added to each well (gentle pipetting evenly distributed the reagent throughout the well). Cells were allowed to incubate for a further 0.5 h at 37° C. under normal atmosphere, followed by subsequent measurement of the absorbance of each well at 450 nm using a TECAN Safire 2 plate reader. Data was background corrected vs. wells that contained cell growth media (without cells), an appropriate concentration of Telox2, a final concentration of DMSO=1%, and WST-1. Background correction wells were incubated in the same manner as described for cell-positive wells.
To investigate the organotellurium compounds of study as potential probe moieties for MC, the metabolic toxicity of the compounds was evaluated. Organotellurium compounds are often described as toxic, with aryl telluroethers showing cellular toxicity below 100 μM across a range of cell lines under different assay conditions.^9-11,38,39 The toxicity of compounds 8-11 was investigated in a commonly used Jurkat cell line after a 24 hour incubation using the metabolic probe WST-1 (Roche Diagnostics, Laval, Quebec) as per manufacturer's instructions. As compounds 8, 9 and 10 are expected to show degradation over the time frame of the toxicity assay, based on the NMR stability studies, these experiments show the relative toxicity of the compounds and their resulting degradation products (Table 2). […] The LD50 values of the exemplary organotellurium compounds of the present application provide promise for their use as activity based MC probes since the general MC experiment can be achieved at concentrations of ˜100 μM.^5

[2] = Empirical log P by UV-Vis assay; type: physicochemical; conditions: aqueous buffer; UV-Vis assay conditions
HCT116 cells = experiment: Competitive labelling with pimonidazole (mass cytometry); type: cell-based; conditions: HCT116, Telox-2 10 μM, near-anoxic
Experimental: Concentration Telox-2=10 μM. The absolute ^130Te signal was measured using mass cytometry.
HCT 116 cells (see sections i and ii) were incubated in media containing Telox or Telox2 (100 μM, added as a neat solution in sterile DMSO; final [DMSO]=0.1%) for 3 hours under atmosphere containing an appropriate concentration of O2. Following incubation, the media was removed, cells were washed with sterile PBS, and then separated from the incubation plate via trypsinization (37° C., 10 min) and gentle scraping. The cell suspension was pelleted and resuspended in PBS containing β-ME (1.0 mL, 100 mM). Cells were pelleted, resuspended in PBS (900 μL, no β-ME), and fixed with formaldehyde (100 μL, 37% solution) for 25 minutes. Following fixation, cells were pelleted, resuspended in PBS containing β-ME (1.0 mL, 100 mM), and pelleted once again. Cells were then resuspended in PBS ([…], no β-ME) and incubated with either the Ir-containing nucleic acid intercalator (hypoxic cells) or the Rh containing nucleic acid intercalator (normoxic cells) (10 μL, 100 μM solution in sterile PBS) for 20 minutes. Cells were then pelleted and resuspended in PBS (1.0 mL, no β-ME) twice. Cell pellets were then resuspended in PBS containing ^151/153EU beads (1/10 dilution of CyTOF® calibration beads, DVS Sciences, 1.0-2.5 mL depending on pellet size). […]

[3] = UV-Vis stability of Telox-2 in aqueous buffer; type: physicochemical; conditions: 200 μM, 0.01% DMSO in phosphate-buffered saline
Experimental: Concentration of Telox-2=200 μM (0.01% DMSO in phosphate-buffered saline). The small spectrum identifies the unique absorptions of the tellurophene and nitroimidazole functionalities.
An orthogonal stability assay using UV-Vis spectroscopy was performed to corroborate the NMR stability findings (FIG. 6). In this assay, UV-Vis spectra of Telox-2 were recorded at a fixed concentration in aqueous buffer over a period of 3 days. Loss of either heterocycle, tellurophene or nitroimidazole, as a result of degradation would be expected to cause a decrease in absorbance at 282 and/or 325 nm respectively.

**Q.** Which results are given for `O=[N+]([O-])c1nccn1CCc1ccc[te]1` [Telox-2, 2-nitro-1-(2-(tellurophen-2-yl)ethyl)-1H-imidazole]?
**A.** solubility, in words (Solubility observations): unusually high water solubility; degradation by 1H NMR over 1 week ([1]; 0.01% dDMSO in D2O, 1 week, 200 μM): no observable degradation; aggregate or micelle formation in aqueous solution (1H NMR peak broadening) ([1]; high concentrations (2 mM)): does not form aggregates or micelles; LD50 (metabolic toxicity) (Jurkat cells): ~270 µM; logP [2]: 1.3; labelling under competitive conditions with pimonidazole (HCT116 cells): reduced in a (pimonidazole) dose-dependent manner; change in absorbance at 282 and/or 325 nm over 3 days [3]: No change in absorbance
